Each structure is given as a SMILES string. Read-outs that look alike come from different tables or passages of the source.

One series concerns 3T3-L1 cells. Nature of the series: Adipogenesis in 3T3-L1 cells (qRT-PCR, Oil red O). Format: cell-based. The procedure:
(§1) The epididymal fat pad was examined to test this effect of butyrate. The tissue was collected at 13 weeks on HFD (18 weeks in age) and used to make a tissue slide (FIG. 3A). After H&E staining, the slide was photographed under a microscope at magnification 20× (FIG. 3A). Gene expression was determined by qRT-PCR at day 8 after induction of cell differentiation of 3T3-L1 cells. Butyrate was used at 100 uM during induction of adipogenesis. Triglycerides in the 3T3-L1 mature adipocyte cells were quantified using Oil red 0 staining at the day 8 post-induction of differentiation (FIG. 3C). In addition, levels of mRNA for leptin, adiponectin, F4/80 (macrophage marker), TNF-α, and iNOS were determined in the epididymal fat and their relative levels are presented in bar figures (FIGS. 3D-3H). In FIGS. 3A-3H, data are represented as mean±SE (n=8). *P<0.05, **P<0.001.
To confirm the butyrate effect on adipocytes, 3T3-L1 cells were used to study butyrate activity in vitro. The cells were treated with butyrate during induction of adipogenesis, which was determined by expression of adipocyte-specific genes and triglyceride amount. […] However, expression of leptin was reduced by butyrate (FIG. 3B). The reduction may be a result of a decrease in triglyceride accumulation in the differentiated 3T3-L1 adipocytes (FIG. 3C). The triglyceride level was reduced 50% in the cells treated by butyrate.

Series [1] has as its system IRS-1 and Akt phosphorylation. Description: Insulin signaling immunoblot in gastrocnemius muscle after insulin injection. It is filed as in vivo, mouse. The following applies: butyrate 5% w/w in HFD 13 weeks, 30 min after insulin 0.75 U/kg. An excerpt: Fresh fat and muscles were collected and frozen in liquid nitrogen. The whole cell lysate protein was extract in lysis buffer with sonication and analyzed in western blot as described elsewhere (16). Antibodies were used in study of myoglobin (sc-25607, Santa Cruz), PGC-1 (sc-13068, Santa Cruz), Tubulin (ab7291, Abcam), myosin (M8421, Sigma), pAMPK (Thr 172, #2531, Cell signaling) and p-p38 (sc-7975, Santa Cruz). To detect multiple signals from one membrane, the membrane was stripped with a stripping buffer. Intensity of the immunoblot signal was quantified using a computer program, ImageJ 1.37v (NIH). The mean values of results from three experiments (6 mice each group) were presented. The antibodies to PGC-1α and UCP-1 were from Dr. Thomas Gettys at Pennington Biomedical Research Center, Baton Rouge, La.
Tail vein blood was used for the glucose assay after 16 hr fasting during the period of HFD feeding. […] The insulin was determined at 16 weeks on HFD in fasting condition with Lincoplex kit (#MADPK-71k-03, Linco Research Inc., St. Charles, Mo.). […] After an overnight fast, blood glucose and insulin were measured and used to determine insulin sensitivity through HOMA IR (IR=fasting insulin […] X fasting glucose mg/dL÷405). […] FIG. 2F illustrates the degree of the blot signal in the panel 2E, by quantifying the signal and normalizing with protein loading. **P<0.001 (n=2).

A short description of series [2]: Butyrate concentration in plasma. It is filed as in vivo. The following applies: mouse, oral, 5 % w/w in HFD, butyrate 5% w/w in HFD for 16 weeks. As to the method:
The serum fatty acids including butyrate were examined using a protocol described elsewhere (18), and as described below in Example 10. The fatty acids in feces were determined using a protocol as described by Schwarz (19). Triglyceride and cholesterol were measured in the whole blood with the Cardiochek portable test system.
The butyrate concentration was analyzed in plasma collected from the butyrate and control groups in mice fed HFD for 16 weeks. In a fasted condition (overnight fast), the butyrate concentration was 7.23±0.93 μg/ml in the butyrate group and 5.71±0.38 μg/ml in the control. […] Data are presented as means±SE (n=6). * P<0.05; ** P<0.001.

The subject of a further series is epididymal fat pad. Nature of the series: White adipose tissue: fat pad morphology and gene expression. Format: in vivo, mouse. The procedure:
Total RNA was extracted from frozen tissues (kept at −80° C.) using Tri-Reagent (T9424, Sigma) as described elsewhere (16). Taqman RT-PCR primer and probe were used to determine mRNA for PGC-1α (Mm00447183_m1), UCP-1 (Mm00494069_m1), PPARδ (Mm01305434_m1) and CPT1b (Mm00487200_m1). The reagents were purchased from Applied Biosystems (Foster City, Calif.). Mouse ribosome 18S rRNA_s1 (without intron-exon junction) was used as an internal control. Reaction was conducted with 7900 HT Fast real time PCR System (Applied Biosystems, Foster City, Calif.).
Fresh tissues (muscle, fat and liver) were collected at 16 weeks of age after 12 weeks butyrate feeding and fixed in 10% neutral buffered formalin solution (HT50-1-2, Sigma). The tissue slides were obtained through serial cross-section cutting at 8 um thickness and processed with a standard procedure. Briefly, the slides were deparaffinated and stained in haematoxylin (#101542, Surgipath) for 15 min, and rinsed in water until sections are blue. Then, slides were stained in Eosin (E4009, Sigma), dehydrated quickly in 95% ethanol and treated with […]. The sections were mounted and photographed with Nikon microscope (Eclipse TS100, Japan).
as §1

Where [3] appears, read: butyrate 100 uM during induction of adipogenesis, qRT-PCR day 8.
Where [4] appears, read: butyrate 5% w/w in HFD vs control, mRNA.

For `CCCC(=O)[O-].[Na+]` [sodium butyrate], in the series with 3T3-L1 cells (setting [3]), the “adipocyte-specific markers (PPARδ, aP2, SREBP, and adiponectin)” value is on record as “not reduced”; the expression of leptin entry is “reduced”. Besides, in the series with 3T3-L1 cells (butyrate 100 uM, Oil red O, day 8 post-induction), the “triglyceride level, reduction” value came out at 50%. Moreover, in series [1], the “threonine 308 phosphorylation of Akt” value is “increased” and the “tyrosine 632 (Y632) phosphorylation of IRS-1” value was “increased”. Moreover, the concentration at 16 weeks in series [2] (fed, read-out: butyrate concentration in plasma, fed condition) is 9.4 ± 1.36 µg/mL. The concentration at 16 weeks in series [2] (overnight fast, read-out: butyrate concentration in plasma, fasted condition) was found to be 7.23 ± 0.93 µg/mL. For the same compound, in the series on epididymal fat pad (setting [4]), the “TNF-α expression in epididymal fat” value was “reduced”, the “iNOS expression in epididymal fat” value is “reduced”, the “leptin expression in epididymal fat” value was “lower level” and the “macrophage marker F4/80 expression in epididymal fat” value is “reduced”. Also, the “epididymal fat pad mass, less than control” value in the series with epididymal fat pad (butyrate 5% w/w in HFD, 13 weeks) is on record as 80%. Also, the “adipocyte size, smaller than control” value in the series on epididymal fat pad (butyrate 5% w/w in HFD, 13 weeks, H&E) was 50%. The “adiponectin expression in epididymal fat, higher than control” value with epididymal fat pad (butyrate 5% w/w in HFD, mRNA) amounted to 50%.

Values taken from patent publication US20130123358A1, “Metabolic Benefits to Butyrate as a Chronic Diet Supplement” (priority 2009, published 2013).
